One assay concerns Candida albicans. The assay is described as follows: Effect on proliferation of Candida albicans, disk on agar surface (A). The format is cell-based. The procedure:
Stock solutions of the following test compounds were dissolved in physiological saline. However DOV was dissolved in water.
C. albicans isolated from clinical specimens were density grown in SubbaRow's broth at 35 C. A loopful of yeast suspension was evenly spread on the surface of Muller-Hilton agar plates (7cm diameter) with a sterile cotton applicator and incubated for 12 hours. The test compounds were placed on the surface of the sensidisks (Whatmann No. 17 paper, 6mm diameter) in a volume of 5, 10, 20, and 50 μliter of stock solutions and made up a final volume of 50 μliter with saline. The plates then were placed and kept at 37 C for 24 hours (*) and 48 hours (**) when the diameters of the inhibitory rings were recorded. Photographs were also taken of plates.

In a further assay the test system is C. albicans. The assay is described as follows: Inhibition of C. albicans, yeast mixed in agar (B). The format is cell-based. As to conditions: 30 μl test, 24 hrs incubation; mean of twenty assays. Here is the method: Stock cultured C. albicans is used. The yeast isolated from clinical specimens was stock cultured (subcultured) on semisolid trypsoy agar plates. […] Thus, from the subculture(s), transfers were made every 48 hrs into SRB to keep the experimental strain available for assays. From the 24-48 hrs SRB cultures a loopful of turbid solutions was transferred and spread on either (a) trypsoy agar plates or (b) EBM agar plates which were fortified with horse and calf serum and incubated at 36 C for 24-48 hrs. […] Plate (a) was selected for growth inhibition assay(s) with ketoaldehydes.
One milliliter of SRB culture (24-48 hrs growth) was mixed with 10 ml trypsoy agar, warmed to 38 C and rapidly poured into sterile Petri dishes (7cm), spread evenly and allowed to solidify. The selected test compounds (in 30 μl total volume, as above) were placed in sensidisks (6mm dia, Whatman #17) on the infected agar surface. The plates were incubated for 24 hrs at 37 C. The extent of inhibition, clear zones around the sensi disks, were measured and recorded. In some cases contact photorecords were also made with the plates. (The dark zones on the photos are the inhibition (no growth) areas of C. albicans.
These assays were aimed at finding the variations of inhibition due to (i) the variable amount of yeast in (ii) a three dimensional area of the plates. Each result is the statistical mean of twenty assays on different batches of C. albicans.

The subject of assay [1] is blood coagulation (citrated human blood plasma). The assay is described as follows: Blood coagulation (i), ketoaldehyde kept 1-2 seconds before plasma added. It counts as biochemical. Conditions: for d % (clotting activity) / coagulation time / clot: 1-2 seconds contact; for d % (clotting activity): control 22; for coagulation time: control 24; for clot: control hard. Here is the method: (§1) 200 microliter thromboplastin (Ortho) was mixed with 10 microliter ketoaldehyde (KA) stock solution. Then 100 microliter citrated human blood plasma was added and the clot formation time (in seconds) was measured on a Fibrionometer. The effect of the ketoaldehyde on coagulation time was evaluated by comparing the clotting time of the KA treated plasma with the untreated control. The result (d%) was read from a special chart expressing the clotting activity.
(§2) All measurements were run in triplicates. The assay was run at 37 C (waterbath) in special tubes and all solutions were prewarmed.
(i) The plasminogen and ketoaldehyde were kept for
1-2 seconds before the blood plasma was added.

In assay [2] the test system is blood coagulation (normal plasma). The assay is described as follows: Blood coagulation (ii)(b), normal plasma. The format is biochemical, human. Here is the method:
as §1, §2
(ii) The plasminogen and KA were incubated for
varying time before the blood plasma was added.
(b) with normal plasma: clotting time = 11. 7 sec

The next assay relates to skin graft rejection. The assay is described as follows: Combatting rejection mechanism: orthotopic skin transplants between Swiss albino and C3HStCrl mice. The format is in vivo. Here is the method:
The experiments described here were performed on random-bred Swiss albino mice (white, females, average body weight 26±3 g; Charles River CD-1-strain) and inbred C3HStCrl mice (cinnamon gray, females, average body weight […]; Charles River pedigreed breeders from L.C. Strong Foundation) and othotopic skin transplants were made in both ways, that is, white to gray and gray to white.
Standard transplantation technique (Billingham, R.E. and W.K. Silvers in Transplantation of Tissues and Cells, The Wistar Institute Press, Philadelphia, p. 8, (1961)) was utilized: From nembutal anesthetized animals 4-6 "pinch" -grafts (full thickness, 3-4 mm in diameter) of the close clipped and sterilized skin were collected from the thorax and immediately transplanted. The grafts were positioned in the "beds" (in place of the pinch-graft) and were held in position by tulle gras (vaseline-impregnated gauze) and by plaster-of-Paris impregnated bandage around the thorax.
The bandages were removed on the 6-9th day after the transplantation and the future development of the grafts was followed by macroscopical observations.
a. Animals were treated for 10 days with the composition before grafts were exchanged and treatment was discontinued on the day of transplantation.
b. Animals were not treated before the grafts were exchanged but the treatment started on the day of transplantation and continued for 10 days.
c. Animals were treated for 10 days with the drug before the grafts were exchanged and the treatment schedule was continued for 25 days after the transplantation.
+Treatment: daily injection with 3.744 mg/kg methylglyoxalmalcimide in 1.

In another assay the test system is Aspergillus niger. Kind of assay: Inhibition of proliferation of molds, disk assay. The format is cell-based. Conditions: 40 hrs. Here is the method:
(§3) (1) Stock solutions in 26% 2 popanediol:
(§4) (3) Assay: The microorganisms were grown in Saburand's dextrose agar (Scott) at 35 C for stock cultures. For assay the spores were plated on Mueller-Hilton agar plates (7cm dia). The test compounds were applied to the plates on sensi disks (6 mm dia, Whatmann #17 paper) in volumes of 10, 20, 30, 40 microliter made up to 40 plating volume of microliter with the solvent. The plates were incubated at room temperature and in the dark for 40 hrs. The diameter of the inhibition ring around the sensi disks were measured.

The subject of assay [3] is Penicillum notatum. The assay is described as follows: Inhibition of proliferation of molds, disk assay. The format is cell-based. As to conditions: 40 hrs. Here is the method: as §3, §4
For assay [4], the system named is Penicillum notatum. The assay is described as follows: Inhibition of proliferation of molds, disk assay. It counts as cell-based. As to conditions: 8 days.
The test system of assay [5] is implantation of fertilized mouse eggs. Kind of assay: Preventing pregnancy in mice. It counts as in vivo. The procedure:
Six 5 month old female CD-1 mice were injected intraperitoneally with N-1 hydroxy acetonyl maleimide for 12 days (50 microgram/ 20 g mice in saline: max volume 0.6 ml/A/D). Another group of the same mice were injected intraperitoneally with saline for 12 days (0.4ml). this second group of mice served as the control.
Two experienced males were introduced to each group of females and kept together for 8 days during which time the females received their daily injection. Copulation plugs were seen on each female by the 12th day of injection, and signs of pregnancy were seen on the control females on the 15-16th day of the experiment. The females delivered on 20-23 (control) and 24-27th (treated) day respectively (Table 3).
The experiment was repeated with the same females two months later, except that females of the control group were assigned to the test group, while females of the test group were reassigned to the control group. […] The control group delivered 102 pups (T/C =100%).

Where [6] appears, read: 10x diluted, incubation time 10 seconds.
Setting [7] is: ip, 50 microgram/20 g mice, 12 females.

Consider `CC(=O)CC(=O)C=O` [AcMG, 3-acetylmethylglyoxal], for which the inhibition diameters in the assay on Candida albicans (10 μliter, 24 hours (*)) is 18 mm; in the assay with Candida albicans (10 μliter, 48 hours (**)), 11 mm; with Candida albicans (20 μliter, 24 hours (*)), 31 mm; with Candida albicans (20 μliter, 48 hours (**)), 24 mm; with Candida albicans (50 μliter, 24 hours (*)) it was 34 mm; in the assay with Candida albicans (50 μliter, 48 hours (**)), 30 mm. Further, in the assay on C. albicans, the “inhibition diameters” value stood at 25.3 mm. In addition, the “d % (clotting activity)” value in assay [1] is recorded as 28%. In assay [1], the coagulation time worked out at 21.5 s. Moreover, the clot entry in [1] is “hard”. Also, the clotting time in [2] (incubation time 120 seconds) was found to be 13.9 s. In assay [2] (incubation time 120 seconds), this compound gave a d% of 78%.
On to methylglyoxalmalcimide, for which the rejection with skin graft rejection ((a) pretreatment 10 days, printed g to 2, 31-40 days, cumulative) is on record as 100%; in the assay on skin graft rejection ((a) pretreatment 10 days, w to g, 26-30 days, cumulative), 30%; in the assay with skin graft rejection ((b) post graft treatment 10 days, printed g to 2, 31-40 days, cumulative) it was 10%; in the assay with skin graft rejection ((b) post graft treatment 10 days, w to g, 26-31 days, cumulative), 10%; with skin graft rejection ((c) pretreatment 10 days and post graft 25 days, g to w, 31-40 days, cumulative), 10%; with skin graft rejection ((c) pretreatment 10 days and post graft 25 days, w to g, 26-30 days), “No rejection”.
For `C[C@@H]1[C@H](O)[C@@H](C)/C=C/C=C/C=C/C=C/C=C/C=C/C=C/[C@H](O[C@@H]2O[C@H](C)[C@@H](O)[C@H](N)[C@@H]2O)C[C@@H]2O[C@](O)(C[C@@H](O)C[C@@H](O)[C@H](O)CC[C@@H](O)C[C@@H](O)CC(=O)O[C@H]1C)C[C@H](O)[C@H]2C(=O)O` [AMP-B, amphotericin-B, reference compound], the inhibition diameters in the assay on Candida albicans (20 μliter, 24 hours (*)) came out at 2 mm; with Candida albicans (50 μliter, 24 hours (*)) it was 5 mm.
As for `O=CC(=O)CCl` [CMG, chloromethylglyoxal], the “diameter of inhibition ring” value is 8 with Aspergillus niger (10 microliter); 11 in the assay on Aspergillus niger (20 microliter); 17 with Aspergillus niger (30 microliter); 22 in the assay on Aspergillus niger (40 microliter); 8 in the assay on Penicillum notatum [3] (10 microliter); 10 in the assay with Penicillum notatum [3] (20 microliter). The “diameter of inhibition ring” value in the assay with Penicillum notatum [3] (30 microliter) turned out to be 12; with Penicillum notatum [3] (40 microliter), 14. The inhibition diameters with Candida albicans (10 μliter, 24 hours (*)) worked out at 7 mm; with Candida albicans (20 μliter, 24 hours (*)), 21 mm; with Candida albicans (20 μliter, 48 hours (**)) it was 10 mm; in the assay with Candida albicans (50 μliter, 24 hours (*)) it was 33 mm; with Candida albicans (50 μliter, 48 hours (**)), 31 mm; in the assay on C. albicans, 26.6 mm. In addition, the “d % (clotting activity)” value in assay [1] is “infinite”. In addition, the coagulation time in [1] is over 200 s. The clot entry in assay [1] is “no”. In addition, the anti-coagulant effectiveness result in [1] (summary of Example 9) is reported as “most effective anti-coagulants”. The clotting time in [2] (setting [6]) is 13.5 s; in [2] (incubation time 15 seconds), 19.4 s; in assay [2] (incubation time 100 seconds), over 178.0 s. Also, the values for the d% in assay [2] (setting [6]) and in assay [2] (incubation time 15 seconds) were 37% and 33%, respectively. In addition, the “persistence of inhibition rings” value with Penicillum notatum [4] (highest concentration) is “remained unchanged”. Besides, the “spore formation / mycelium development in second ring” value in the assay with Penicillum notatum [4] (penicillin plate) was “spore formation in this area was inhibited while mycelium development was not”.
Regarding `O=CC(=O)Cc1ccccc1` [PMG, 3-Phenylmethylglyoxal], in [1], the “d % (clotting activity)” value is recorded as 10.5%, the coagulation time came to 36 s and the clot entry is given as “hard”. In assay [2] (incubation time 120 seconds), this compound came in with a clotting time of 21.2 s and a d% of 28%.
Regarding `CC(=O)C(O)N1C(=O)C=CC1=O` (centres unmarked) [MGMALI], the I % in assay [5] (ip, 50 microgram/20 g mice) was determined as 89.7%. For the same compound, the T/C % in [5] (ip, 50 microgram/20 g mice) was found to be 10.3%. In [5] (setting [7]), the “delivered (pups)” value is recorded as 11. Besides, the females that delivered in assay [5] (setting [7]) is 2 female. Further, in [5] (second experiment, groups exchanged, two months later), the inhibition of delivery turned out to be 83.3%. Besides, in [5] (treated females, control 20-23), the day of delivery lay within 24 to 27 days. For the same compound, the inhibition diameters with Candida albicans (10 μliter, 24 hours (*)) is 8 mm; in the assay with Candida albicans (20 μliter, 24 hours (*)), 18 mm; in the assay with Candida albicans (20 μliter, 48 hours (**)), 17 mm; in the assay on Candida albicans (50 μliter, 24 hours (*)), 22 mm; in the assay on Candida albicans (50 μliter, 48 hours (**)) it was 22 mm.
Consider `CC(=O)CC(=O)C(=O)O` [DOV, 2,4-dioxovaleric acid, reference compound], for which, in the assay with Candida albicans (5-50 μliter, 24 hours (*)), the “inhibition diameters, in words” value was “negligible”.
With `O=C1C=CC(=O)N1` [MALI, maleimide, reference compound], the inhibition diameters with Candida albicans (5 μliter, 24 hours (*)) was found to be 13 mm; with Candida albicans (10 μliter, 24 hours (*)), 21 mm; in the assay with Candida albicans (10 μliter, 48 hours (**)), 17 mm; with Candida albicans (20 μliter, 24 hours (*)) it was 29 mm; with Candida albicans (20 μliter, 48 hours (**)), 25 mm; in the assay with Candida albicans (50 μliter, 24 hours (*)), 30 mm. In addition, in the assay with Candida albicans (50 μliter, 48 hours (**)), the inhibition diameters is 30 mm.
Consider `CCOC(C)C(=O)C=O` (centres unmarked) [KE, kethoxal, reference compound], for which the inhibition diameters in the assay with Candida albicans (10 μliter, 24 hours (*)) was 7 mm; with Candida albicans (20 μliter, 24 hours (*)) it was 17 mm; with Candida albicans (20 μliter, 48 hours (**)), 16 mm; in the assay with Candida albicans (50 μliter, 24 hours (*)), 25 mm; with Candida albicans (50 μliter, 48 hours (**)), 24 mm.

These data come from patent publication US5147652A, “Autobiotics and their use in eliminating nonself cells in vivo” (priority 1990, dated 1992).
